Molecules are shown by their SMILES.

Here are results for two compounds from patent publication US20170209402A1, “CARBOXY-CYCLOPROPYL UNDECANOL COMPOUNDS FOR TREATMENT OF LIVER DISEASE AND OTHER MEDICAL DISORDERS” (Esperion Therapeutics, Inc., priority 2014, published 2017).

This experiment deals with C57BL/6N male mice fed high-fat diet. Kind of experiment: Hepatic triglyceride levels in C57BL/6N male mice receiving a high-fat diet. Type of experiment: in vivo. The note with it: 3 weeks HFD, compound as diet admix 289 mg/kg HFD (~30 mg/kg/day) for final 2 weeks, 4-hour fast, group mean, HFD alone 1.6, NC 0.6. On the procedure: An assay was performed to determine the effect of administering Compounds A and B to C57BL/6N male mice receiving a high-fat diet.
C57BL/6N male mice were obtained from Charles River Laboratories (Montreal, QC, Canada) at 11 weeks of age and singly housed on alpha-dri paper bedding on a normal 12 hour, 6 am-6 pm light-dark cycle. Upon arrival, 27 mice were fed D12492 high fat diets (HFD) containing 60% kcal fat while 9 mice were fed D12450K normal chow diet (NC) for 1 week with free access to water. Mice that had been fed D12492 were allocated into three equally distributed treatment arms of 9 mice each at 12 weeks of age based on 4-hour fasted blood glucose and body weight. […]
Following a 4-hour fast, mice were euthanized and a random lobe of liver was flash frozen in liquid nitrogen for subsequent hepatic lipid analysis. […] A 10 μL aliquot of the prepared sample was injected into the HPLC-ELSD system utilizing a Spherisorb® S5W Silica gel 5 μm, 100×4.6 mm ID HPLC column (Waters) running a 99:1 isooctane:tetrahydrofuran (mobile phase A), 2:1 acetone:CH2Cl2 (mobile phase B), 85:15 isopropanol:7.5 mM acetic acid/7.5 mM ethanolamine (mobile phase C) gradient before being detected using evaporative light scattering detection (ELSD) on an SEDEX® 75 detector (Sedere, Inc., Lawrenceville, N.J.). […]

As to `O=C(O)C1(CCCCCC(O)CCCCCC2(C(=O)O)CC2)CC1` [Compound A, 1,11-bis-(1-carboxy-cyclopropyl)-undecan-6-ol], the “Hepatic TG” value stood at 0.6 % w/w.
Under `CC(C)(CCCCCC(O)CCCCCC(C)(C)C(=O)O)C(=O)O` [Compound B] stands 1.1 % w/w.
